In US11590129B2, “Combination therapy with an antitumor alkaloid” (PHARMA MAR, S.A., priority 2010, dated 2023):

What was measured:
[1] = test system: U-937 human lymphoma cell line; test: cells; conditions: Homo sapiens, U-937, 72 h
Procedure: (§1) Briefly, cells were seeded in 96 well microtiter plates at a density of 50000 cells per well in 150 μL of culture medium and incubated for 4-6 hours in drug-free medium before treatment with vehicle alone or test compounds for 72 hours.
(§2) After incubation, the cytotoxic effect was evaluated using a MTT reduction assay. 50 μL of MTT solution (1 mg/mL) were added to the wells and incubated for 15-17 hours at 37° C. until formazan crystals were formed. After gently removing the culture medium, DMSO was added to dissolve the insoluble purple formazan product into a colored solution. […] Results were expressed as percentage of control cell growth. The EC50 values (half-maximal effective concentration) used for the combination studies were calculated using Prism v5.02 software (GraphPad). EC50 was expressed as molar concentration and represented the mean of at least three independent assays.
(§3) Using these starting concentrations, constant serial dilutions were performed to generate the concentration-response curves for each set of drugs, alone and in combination.
(§4) Based on this equation, the term “combination index” (CI) is used as a quantitative measure of the degree of drug interactions. […] CI values were calculated by solving the equation for different values of fa (i.e., for different degrees of cell groth inhibition).
(§5) Data were analyzed using CalcuSyn software (Biosoft, Cambridge, UK). For statistical analysis and graphs Prism software (GraphPad, San Diego, USA) was used. All the results represent the mean of at least three independent experiments.
(§6) Additional serial dilutions were prepared in serum-free culture medium to achieve a final 4× concentration. Aliquots of 50 μL of each diluted compound were added per well.
(§7) In the second set of assays, concentration-response curves for the agents tested, both alone and in two-drug combination, were performed.

[2] = test system: RAMOS human lymphoma cell line; test: cells; conditions: Homo sapiens, Ramos, 72 h
Procedure: as §1, §2, §3, §4, §5, §6, §7

U87-MG tumors = test: Human brain tumor xenografts (U87-MG) in athymic nude mice, tumor volume % T/C; format: in vivo
Procedure: Female athymic nude mice (Harlan Laboratories Models, S.L. (Barcelona, Spain) were utilized for all experiments. Animals were housed in individually ventilated cages, up to ten per cage in a 12-hour light-dark cycle at 21-23° C. and 40-60% humidity. The mice were allowed free access to irradiated standard rodent diet and sterilized water. Animals were acclimated for at least 5 days prior to tumor implantation with a tumor cell suspension.
The tumor model used in these studies was U87-MG cell line, which was obtained from the American Type Culture Collection (ATCC HTB-14™).
U87-MG cells were grown at 37° C. with 5% CO2 in Minimum Essential Medium Eagle (MEME). Each animal was subcutaneously implanted on the right flank, using 26G needle and a 1 cc syringe, with 5×10^6 U87-MG cells, from in vitro passage 5, in 0.05 mL suspension of 50% Matrigel and 50% serum free medium, without antibiotics.
PM01183 was provided in the form of vials of lyophilized PM01183 cake which was reconstituted with water for infusion to a concentration of 0.2 mg/mL. The PM01183 stock solution was further diluted in 5% glucose solution for injection to the dosing formulation concentrations. Temozolomide was provided as a solution prepared by diluting the product in DMSO 10% in 0.9% saline solution for injection to the target final concentration.
In these experiments, PM01183 and temozolomide treatments, as well as placebo, were administered as follows: PM01183, intravenously once per week up to 3 consecutive weeks, on Days 0, 7 and 14, temozolomide orally, in a daily basis during 8 consecutive days (Days 0 to 7), and placebo was administered following the same schedule as those provided for PM01183 and temozolomide. Dose level groups were administered either as single agents or in combination.
Comparison of the median tumor volume in the treatment groups (T) to the median tumor volume in the control group (T/C×100%) was used for evaluation of the antitumor efficacy.

COc1ccc2[nH]c3c(c2c1)CCN[C@]31CS[C@@H]2c3c(OC(C)=O)c(C)c4c(c3[C@H](COC1=O)N1[C@@H]2[C@H]2c3c(cc(C)c(OC)c3O)C[C@@H]([C@@H]1O)N2C)OCO4 [PM01183]
EC50 [1]: 1.03 nM | EC50 [2]: 1.39 nM | % T/C on day 0 (U87-MG tumors; PM01183 0.045 mg/kg): 98.2% | % T/C on day 2 (U87-MG tumors; PM01183 0.045 mg/kg): 101.0% | % T/C on day 4 (U87-MG tumors; PM01183 0.045 mg/kg): 80.4% | % T/C on day 7 (U87-MG tumors; PM01183 0.045 mg/kg): 83.8% | % T/C on day 9 (U87-MG tumors; PM01183 0.045 mg/kg): 78.8% | % T/C on day 11 (U87-MG tumors; PM01183 0.045 mg/kg): 77.7% | % T/C on day 14 (U87-MG tumors; PM01183 0.045 mg/kg): 76.7% | % T/C on day 16 (U87-MG tumors; PM01183 0.045 mg/kg): 82.5% | % T/C on day 0 (U87-MG tumors; PM01183 0.09 mg/kg): 97.9% | % T/C on day 2 (U87-MG tumors; PM01183 0.09 mg/kg): 99.5% | % T/C on day 4 (U87-MG tumors; PM01183 0.09 mg/kg): 74.4% | % T/C on day 7 (U87-MG tumors; PM01183 0.09 mg/kg): 85.1% | % T/C on day 9 (U87-MG tumors; PM01183 0.09 mg/kg): 69.4% | % T/C on day 11 (U87-MG tumors; PM01183 0.09 mg/kg): 71.8% | % T/C on day 14 (U87-MG tumors; PM01183 0.09 mg/kg): 74.1% | % T/C on day 16 (U87-MG tumors; PM01183 0.09 mg/kg): 73.5% | % T/C on day 0 (U87-MG tumors; PM01183 0.135 mg/kg): 98.5% | % T/C on day 2 (U87-MG tumors; PM01183 0.135 mg/kg): 90.5% | % T/C on day 4 (U87-MG tumors; PM01183 0.135 mg/kg): 61.2% | % T/C on day 7 (U87-MG tumors; PM01183 0.135 mg/kg): 71.3% | % T/C on day 9 (U87-MG tumors; PM01183 0.135 mg/kg): 67.7% | % T/C on day 11 (U87-MG tumors; PM01183 0.135 mg/kg): 65.3% | % T/C on day 14 (U87-MG tumors; PM01183 0.135 mg/kg): 64.2% | % T/C on day 16 (U87-MG tumors; PM01183 0.135 mg/kg): 63.6% | % T/C on day 0 (U87-MG tumors; PM01183 0.18 mg/kg): 99.8% | % T/C on day 2 (U87-MG tumors; PM01183 0.18 mg/kg): 95.5% | % T/C on day 4 (U87-MG tumors; PM01183 0.18 mg/kg): 64.8% | % T/C on day 7 (U87-MG tumors; PM01183 0.18 mg/kg): 63.2% | % T/C on day 9 (U87-MG tumors; PM01183 0.18 mg/kg): 52.0% | % T/C on day 11 (U87-MG tumors; PM01183 0.18 mg/kg): 44.1% | % T/C on day 14 (U87-MG tumors; PM01183 0.18 mg/kg): 38.5% | % T/C on day 16 (U87-MG tumors; PM01183 0.18 mg/kg): 37.1%
